From patent publication US9388136B2, “Tert-butyl N-[2-{4-[6-amino-5-(2,4-difluorobenzoyl)-2-oxopyridin-1(2H)-yl]-3,5-difluorophenyl}ethyl]-L-alaninate or a salt, hydrate or solvate thereof” (Chroma Therapeutics Ltd., priority 2012, dated 2016)
Read-outs that look alike come from different tables or passages of the source.

Key:
THP-1 cells = assay: LPS-stimulation of THP-1 cells, TNF-α levels by ELISA; assay type: cell-based; details: Homo sapiens, THP-1; LPS 1 μg/ml, 6 hrs; read-out: C—ester TNF-alpha inhibition (THP-1 cells), IC50
Experimental: THP-1 cells were plated in 100 μl at a density of 4×10^4 cells/well in V-bottomed 96 well tissue culture treated plates and incubated at 37° C. in 5% CO2 for 16 hrs. 2 hrs after the addition of the inhibitor in 100 μl of tissue culture media, the cells were stimulated with LPS (E coli strain 005:B5, Sigma) at a final concentration of 1 μg/ml and incubated at 37° C. in 5% CO2 for 6 hrs. TNF-α levels were measured from cell-free supernatants by sandwich ELISA (R&D Systems #QTA00B).

human whole blood = assay: LPS-stimulation of human whole blood, TNF-α levels by ELISA; assay type: cell-based; details: Homo sapiens; LPS 100 ng/ml, 6 hrs; read-out: D—ester TNF-alpha inhibition (human whole blood), IC50
Experimental: Whole blood was taken by venous puncture using heparinised vacutainers (Becton Dickinson) and diluted in an equal volume of RPMI1640 tissue culture media (Sigma). 100 μl was plated in V-bottomed 96 well tissue culture treated plates. 2 hrs after the addition of the inhibitor in 100 μl of RPMI1640 media, the blood was stimulated with LPS (E coli strain 005:B5, Sigma) at a final concentration of 100 ng/ml and incubated at 37° C. in 5% CO2 for 6 hrs. TNF-α levels were measured from cell-free supernatants by sandwich ELISA (R&D Systems #QTA00B).

Plasma exposure in mice = assay type: in vivo; details: mouse, po 10 mg/kg, male CD1 mice
Experimental: The compounds were formulated in 8% DMSO, 92% 11.25% hydroxypropyl-β-cyclodextrin in water using the following procedure: the compounds were fully dissolved in 100% DMSO and then the hydroxypropyl-β-cyclodextrin solution added. The fine precipitate formed was re-dissolved by the addition of aqueous HCl and the pH adjusted to 4 with aqueous sodium hydroxide.
Each compound was administered orally at 10 mg/kg, in a total dose volume of 5 ml/kg, to male CD1 mice ([…]). Three mice were used for each time point. Blood samples were taken at the following time points: 5, 15, 30, 60, 120, 240 and 360 minutes, by terminal cardiac puncture, under halothane/isofluorane anaesthesia. Blood samples were collected into pre-chilled tubes containing NaF/EDTA and mixed. Samples were spun at 7-7.5×g for 2 minutes. The plasma was aspirated and frozen.
Plasma samples were prepared by precipitation of protein using three volumes of acetonitrile containing the internal standard. The supernatants were analysed by LCMS (Sciex API 3000, HP1100 binary pump, CTC PAL). The chromatography was based on an Acentis C8 (50×2.1 mm) column and a mobile phase of 5-95% acetonitrile in water/0.1% formic acid.
Exposure (AUC) was calculated from the plasma concentration versus time profile using PK Solutions 2.0 (Summit Research Services, Montrose, Colo.).

p38 MAP Kinase a = p38 MAP Kinase a (Homo sapiens (Human), UniProt Q16539); assay: p38 MAP kinase enzyme assay (radiometric filter-binding); assay type: biochemical
p38 MAP Kinase a, sequence (Q16539 whole entry): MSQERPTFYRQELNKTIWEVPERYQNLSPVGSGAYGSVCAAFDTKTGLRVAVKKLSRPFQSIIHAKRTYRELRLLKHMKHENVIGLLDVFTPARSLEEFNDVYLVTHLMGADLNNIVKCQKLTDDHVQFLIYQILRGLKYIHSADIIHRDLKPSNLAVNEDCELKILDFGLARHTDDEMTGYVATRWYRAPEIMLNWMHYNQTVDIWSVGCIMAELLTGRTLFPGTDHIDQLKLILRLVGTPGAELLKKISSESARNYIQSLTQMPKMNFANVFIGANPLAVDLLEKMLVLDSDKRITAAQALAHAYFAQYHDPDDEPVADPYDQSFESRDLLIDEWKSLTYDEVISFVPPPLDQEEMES
Experimental: The ability of compounds to inhibit p38 MAP a Kinase activity was measured in an assay performed by Upstate (Dundee UK). In a final reaction volume of 25 μL, p38 MAP Kinase a (5-10 mU) is incubated with 25 mM Tris pH 7.5, 0.002 mMEGTA, 0.33 mg/mL myelin basic protein, 10 mM MgAcetate and [g-33p-ATP] (specific activity approx. 500 cpm/pmol, concentration as required). The reaction is initiated by the addition of the MgATP mix. After incubation for 40 minutes at room temperature, the reaction is stopped by the addition of 5 μL of a 3% phosphoric acid solution. 10 μL of the reaction is then spotted onto a P30 filtermat and washed three times for 5 minutes in 75 mM phosphoric acid and once in methanol prior to drying and scintillation counting.
Duplicate data points are generated from a 1/3 log dilution series of a stock solution in DMSO. Nine dilutions steps are made from a top concentration of 10 μM, and a ‘no compound’ blank is included. The standard radiometric filter-binding assay is performed at an ATP concentration at, or close to, the Km. Data from scintillation counts are collected and subjected to free-fit analysis by Prism software.

[1] = corresponding acid (hydrolysis product of the named ester) tested, read-out: B—acid enzyme assay (p38 kinase A (invitrogen)), IC50
[2] = ester tested, read-out: A—ester enzyme assay (p38 kinase A (invitrogen)), IC50

Q: What does the source list for CC(C)C[C@H](NCCc1cc(F)c(-n2c(N)c(C(=O)c3ccc(F)cc3F)ccc2=O)c(F)c1)C(=O)OC1CCCC1 [cyclopentyl N-(2-{4-[6-amino-5-(2,4-difluoro-benzoyl)-2-oxopyridin-1(2H)-yl]-3,5-difluoro-phenyl}ethyl)-L-leucinate]?
A: IC50 (THP-1 cells): 0.5 nM; IC50 (human whole blood): 54 nM; AUC(0-t) (Plasma exposure in mice): 14 ng·h/mL; IC50 (p38 MAP Kinase a; [1]): 1 nM; IC50 (p38 MAP Kinase a; [2]): 231 nM

Q: For CC(C)C[C@H](NCCc1cc(F)c(-n2c(N)c(C(=O)c3ccc(F)cc3F)ccc2=O)c(F)c1)C(=O)OC(C)(C)C [tert-butyl N-(2-{4-[6-amino-5-(2,4-difluoro-benzoyl)-2-oxopyridin-1(2H)-yl]-3,5-difluorophenyl}ethyl)-L-leucinate], which IC50 (THP-1 cells) is on record?
A: 3 nM

Q: What about the IC50 (human whole blood) of the same compound?
A: 191 nM

Q: And the AUC(0-t) (Plasma exposure in mice)?
A: 75 ng·h/mL

Q: What about the IC50 (p38 MAP Kinase a; [1]) of the same compound?
A: 1 nM

Q: What about the IC50 (p38 MAP Kinase a; [2]) of the same compound?
A: 120 nM

Q: Which IC50 (THP-1 cells) does the source give for C[C@H](NCCc1cc(F)c(-n2c(N)c(C(=O)c3ccc(F)cc3F)ccc2=O)c(F)c1)C(=O)OC(C)(C)C [tert-Butyl N-(2-{4-[6-amino-5-(2,4-difluorobenzoyl)-2-oxopyridin-1(2H)-yl]-3,5-difluorophenyl}ethyl)-L-alaninate] here?
A: 1.6 nM

Q: What about the IC50 (human whole blood) of the same compound?
A: 26 nM

Q: What about the AUC(0-t) (Plasma exposure in mice) of the same compound?
A: 102 ng·h/mL

Q: And the IC50 (p38 MAP Kinase a; [1])?
A: 1 nM

Q: What about the IC50 (p38 MAP Kinase a; [2]) of the same compound?
A: 12 nM

Q: For C[C@@H](O)[C@H](NCCc1ccc(-n2c(N)c(C(=O)c3ccc(F)cc3F)ccc2=O)cc1)C(=O)OC1CCCC1 [Cyclopentyl N-[2-(4-{6-amino-5-[(2,4-difluoro-phenyl)carbonyl]-2-oxopyridin-1(2H)-yl}phenyl)ethyl]-L-threoninate], which IC50 (THP-1 cells) is on record?
A: 1.8 nM

Q: And the IC50 (human whole blood)?
A: 1200 nM

Q: What about the IC50 (p38 MAP Kinase a; [1]) of the same compound?
A: 56 nM

Q: What about the IC50 (p38 MAP Kinase a; [2]) of the same compound?
A: 68 nM
